The text below walks through data of patent US20140296164A1, “Compositions and methods of use for cell targeted inhibitors of the Cystic Fibrosis transmembrane regulator associated ligand” (CALISTA THERAPEUTICS, INC., priority 2013, published 2014).

For series [1], the system named is deltaF508-CFTR. Description: CFTR agonist evoked short circuit (ISC) current, Ussing epithelial voltage clamp. The class given is cell-based, human. As to conditions: for summed ISC currents compared with Vehicle treatment: apical, one day at 27° C., CFFT006F cells, Dunnett's test. From the text: To test for bioeffectiveness, for our exemplary invention to stabilize CFTR, we measured the chloride transport function homozygous deltaF508-CFTR cystic fibrosis human bronchial epithelial cells grown and differentiated on Snapwell™ filter inserts as CFTR agonist evoked short circuit (ISC) current. The ISC was the output of an Ussing epithelial voltage clamp apparatus after amiloride block of sodium current through the epithelial sodium channel (ENaC). ENaC current was monitored as the amiloride sensitive current component of the ISC. The objective of this study was to measure the ability of various compounds, including but limited to CT002, CT008, CT003, CT004, CT005, CT006, CT007, and AT0011 (peptide control), to restore function to defective deltaF508-CFTR in CFhBE cell monolayers (epithelia) after a one day incubation period on the apical surface of the epithelia. See FIG. 4 for sequences and ID numbers.
CT003, CT004, CT005, CT006, CT007, and AT0011 were combined with the known corrector VX-809. CT002 (WQVTRV) was incubated with 10 μL of the cell permeability enhancing reagent BioPORTER™. Statistical comparisons were made using Dunnett's test and Student's t-test with significance evaluated at P<0.05. The ISC current polarity convention used here records apical to basolateral sodium current and basolateral to apical chloride current as negative.
Referring now to the drawings, a first exemplary embodiment is illustrated and generally indicated in FIGS. 1, 2 and 3, which is the measurement of the chloride transport function of homozygous deltaF508-CFTR cystic fibrosis human bronchial epithelial cells grown and differentiated on Snapwell™ filter inserts as CFTR agonist evoked short circuit (ISC) current. The ISC was the output of an Ussing epithelial voltage clamp apparatus after amiloride block of sodium current through the epithelial sodium channel (ENaC). ENaC current was monitored as the amiloride sensitive current component of the ISC. The objective of this study was to measure the ability of candidate Test Articles and controls (CT002 (WQVTRV+BIOPORTER), CT008 (WQVTRV alone), CT003, CT004, CT005, CT006, CT007, and AT0011 control) to restore function to defective deltaF508-CFTR in CFhBE cell monolayers (epithelia) after a one day incubation period on the apical surface of the epithelia. These peptide compounds differed in their amino acid sequence to optimize solubility, intracellular permeability, stability and toxicity (CT003-CT007 shown here). The control peptides were non-optimized sequences (CT002 and CT008) and an off-target peptide control (AT0011).
CT003, CT004, CT005, CT006, CT007, and AT0011 were combined with the known corrector VX-809 and CT002 was incubated with 10 μL of the cell permeability enhancing reagent BioPORTER™. Statistical comparisons were made using Dunnett's test and Student's t-test with significance evaluated at P<0.05. The ISC current polarity convention used records apical to basolateral sodium current and basolateral to apical chloride current as negative.
All incubations were performed at 27±0.5° C. Test Articles were applied at their final concentrations to the apical surface of the cellular monolayers in 200 μL of Opti-MEM Reduced Serum Medium without addition of serum. […] Test Article incubations were approximately 24 hours. 150 μL of cycloheximide (20 μg/mL) was applied to the apical surface of the epithelia for the final 2 hours of peptide treatment, total volume 350 μL. Cycloheximide prevented new protein synthesis that might be otherwise conflated with test article efficacy. This incubation protocol mimics the dilution and clearance effect that will be encountered by topical delivery to the lungs. Test articles are applied at t=0 h, 10 μM in 200 μL, to the apical surface. 2000 μL of basolateral medium provides an immediate dilution effect (test article: 0.91 μM), then at t=22 h, a further […] of cycloheximide containing solution is further added, (test article: 0.85 μM). […]

Series [2] deals with deltaF508-CFTR. As to conditions: cited from earlier work.
In series [3] the test system is epithelial sodium channel (ENaC). Description: Amiloride sensitive sodium current component of the ISC, Ussing assay. The class given is cell-based, human. To be noted: Test Article 10 uM + VX-809 1 uM, Student's test. From the text:
To test for bioeffectiveness, for our exemplary invention to stabilize CFTR, we measured the chloride transport function homozygous deltaF508-CFTR cystic fibrosis human bronchial epithelial cells grown and differentiated on Snapwell™ filter inserts as CFTR agonist evoked short circuit (ISC) current. The ISC was the output of an Ussing epithelial voltage clamp apparatus after amiloride block of sodium current through the epithelial sodium channel (ENaC). ENaC current was monitored as the amiloride sensitive current component of the ISC. […]
Referring now to the drawings, a first exemplary embodiment is illustrated and generally indicated in FIGS. 1, 2 and 3, which is the measurement of the chloride transport function of homozygous deltaF508-CFTR cystic fibrosis human bronchial epithelial cells grown and differentiated on Snapwell™ filter inserts as CFTR agonist evoked short circuit (ISC) current. […] ENaC current was monitored as the amiloride sensitive current component of the ISC. […]
Ussing Assay: All Ussing assays were performed at 27±0.5° C. and lasted for approximately 1 hour 40 minutes. The temperature was monitored throughout the experiment using a thermistor probe connected to the data acquisition system and inserted into the bath solution of one chamber. […]

The nature of series [4]: Solubility of peptide sequences. The class given is physicochemical.
Setting [5] is: Test Article 10 uM + VX-809 1 uM, Student's t-test.

“Also recorded” adds a separate entry of the source. No end group written: not given here.

`Cc1ccc(NC(=O)C2(c3ccc4c(c3)OC(F)(F)O4)CC2)nc1-c1cccc(C(=O)O)c1` [VX-809, reference compound]: in the series with deltaF508-CFTR [1] (VX-809 1 μM alone), the “summed ISC currents compared with Vehicle treatment” value is on record as “significantly above Vehicle treatment”. Further, in the series on deltaF508-CFTR [1] (VX-809 1 μM, apical incubation only, not in basolateral media), the “summed ISC currents compared with expected level” value is given as “less than the expected level”.

In the case of ANSRWPTSII, the “function without BIOPORTER” value in the series with deltaF508-CFTR [2] is listed as “neither sequence functions”.

For “Acety-YGRKKRRQRRR-glycoyl-WQVTRV-amide (Ac-YGRKKRRQRRR; not fully specified (C-terminus)) [CT007]”, the “lower concentration needed versus prior sequences with BIOPORTER” value in the series with deltaF508-CFTR [1] (10 μM CT007 vs 500 μM WQVTRV) is reported as > 50 times. The “improvement in reported efficacy versus WQVTRV and ANSRWPTSII with BIOPORTER” value in the series on deltaF508-CFTR [1] (10 uM vs 500 μM, at least) was “fifty-fold”. Moreover, the “additive efficacy to VX-809” value in the series with deltaF508-CFTR [1] (CT007 10 uM + VX-809 1 uM, CF bronchial epithelium, n=4) turned out to be 36%. In the series with deltaF508-CFTR [1] (setting [5]), the “response to CFTRinh-172 compared with VX-809 1 uM” value is given as “significantly increased” and the “summed ISC currents (CFTR chloride current restoration) compared with VX-809 1 μM treatment” value was “significantly greater; also recorded: significantly above VX-809 1 μM treatment”. Moreover, the “summed ISC currents compared with Vehicle treatment” value with deltaF508-CFTR [1] (Test Article 10 uM + VX-809 1 uM) is reported as “significantly above Vehicle treatment”. In addition, the “duration of therapeutic drug action” value in the series with deltaF508-CFTR [1] (after transient topical apical dosing, test article removed before Ussing assay) is reported as “at least 26 hours”. Further, the “amiloride sensitive sodium current generated by ENaC compared to VX-809 alone” value in series [3] is “significantly increased”.

Regarding WQVTRV [CT008, WQVTRV], in series [4] (500 μM), the “solubility at the effective concentration” value is listed as “largely insoluble”. Moreover, the solubility in water result in series [4] (water / aqueous fluids) is “insoluble in water”.
